Laboratory results reported in ChEMBL document CHEMBL5236635, “Structure-Based Drug Design and Synthesis of Novel N-Aryl-2,4-bithiazole-2-amine CYP1B1-Selective Inhibitors in Overcoming Taxol Resistance in A549 Cells” (J Med Chem, 2022).
Values belong to the compound of their own block, whether it stands above or below them. Activity calls are given as the source filed them. No cut-off for these calls is given here.

Assays:
A549 [1] = assay: Inhibition of DMBA-induced CYP1B1 overexpression in human A549 cells assessed as effect on Snail level at 5 uM incubated for 24 hrs by densitometry analysis; type: functional, cell-based
A549 [2] = assay: Inhibition of cell migration in DMBA-induced human A549 cells at 5 uM incubated for 48 hrs by inverted microscopic analysis; type: functional, cell-based
NCI-H460 [3] = assay: Antiproliferative activity against human taxol resistance human NCI-H460 cells assessed as reduction in cell viability incubated for 24 hrs by MTT assay; type: functional, cell-based; conditions: dose 5.0 µM
A549/TR [4] = assay: Reversal of taxol resistance in human A549/Taxol cells assessed as suppression of P-gp expression level at 5 uM incubated for 20 mins by multimode plate reader analysis; type: functional, cell-based
A549 [5] = assay: Antiproliferative activity against human taxol resistance human A549 cells assessed as reduction in cell viability incubated for 24 hrs by MTT assay; type: functional, cell-based; conditions: dose 5.0 µM
[6] = biological target: Focal adhesion kinase 1 (Homo sapiens) (UniProt Q05397); assay: Inhibition of FAK pathway in human A549/Taxol cells assessed as decrease in phosphorylated FAK level at 5 uM incubated for 24 hrs; type: cell-based
Chain of Focal adhesion kinase 1 (Homo sapiens) (Q05397 2-1052 limits assumed): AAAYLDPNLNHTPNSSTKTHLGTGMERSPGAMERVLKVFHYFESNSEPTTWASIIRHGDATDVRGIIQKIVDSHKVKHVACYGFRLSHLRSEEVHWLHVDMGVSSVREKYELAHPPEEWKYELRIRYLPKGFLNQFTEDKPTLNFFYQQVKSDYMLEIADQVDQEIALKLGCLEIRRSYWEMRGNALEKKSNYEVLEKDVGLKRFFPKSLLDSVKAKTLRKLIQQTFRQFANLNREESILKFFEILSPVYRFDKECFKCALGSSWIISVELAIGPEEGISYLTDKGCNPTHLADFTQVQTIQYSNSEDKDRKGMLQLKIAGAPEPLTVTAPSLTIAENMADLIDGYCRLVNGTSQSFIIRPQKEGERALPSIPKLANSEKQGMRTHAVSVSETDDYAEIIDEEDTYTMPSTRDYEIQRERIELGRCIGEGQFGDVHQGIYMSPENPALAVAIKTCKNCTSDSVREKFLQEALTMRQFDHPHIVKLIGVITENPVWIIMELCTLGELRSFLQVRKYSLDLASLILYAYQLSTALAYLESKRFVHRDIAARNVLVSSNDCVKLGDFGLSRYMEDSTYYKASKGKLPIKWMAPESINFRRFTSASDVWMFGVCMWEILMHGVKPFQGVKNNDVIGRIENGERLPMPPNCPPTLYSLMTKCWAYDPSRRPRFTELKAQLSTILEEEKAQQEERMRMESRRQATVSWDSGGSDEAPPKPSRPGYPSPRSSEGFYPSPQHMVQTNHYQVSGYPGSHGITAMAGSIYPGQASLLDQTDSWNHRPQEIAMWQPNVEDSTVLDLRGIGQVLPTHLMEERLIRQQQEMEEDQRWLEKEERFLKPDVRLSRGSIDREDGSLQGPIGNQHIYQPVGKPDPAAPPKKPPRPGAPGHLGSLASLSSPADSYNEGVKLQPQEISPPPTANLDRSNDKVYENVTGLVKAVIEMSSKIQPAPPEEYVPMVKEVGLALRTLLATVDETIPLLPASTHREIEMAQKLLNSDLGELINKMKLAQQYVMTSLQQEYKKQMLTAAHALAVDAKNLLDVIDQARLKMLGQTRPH

NCI-H460 [7] = assay: Inhibition of cell invasion in DMBA-induced human NCI-H460 cells at 5 uM by optical microscopic analysis; type: functional, cell-based
A549 [8] = assay: Inhibition of DMBA-induced CYP1B1 overexpression in human A549 cells assessed as increase in N-cadherin level incubated for 24 hrs by densitometry analysis; type: functional, cell-based; conditions: dose 5.0 µM
NCI-H460 [9] = assay: Inhibition of DMBA-induced CYP1B1 overexpression in human NCI-H460 cells assessed as decrease in Vimentin level at 5 uM incubated for 24 hrs by densitometry analysis; type: functional, cell-based
NCI-H460 [10] = assay: Upregulation of DMBA-induced CYP1B1 expression level in human NCI-H460 cells incubated for 24 hrs; type: functional, cell-based; conditions: dose 1-10 µM
A549 [11] = assay: Inhibition of DMBA-induced CYP1B1 overexpression in human A549 cells assessed as increase in Paxillin level incubated for 24 hrs by densitometry analysis; type: functional, cell-based; conditions: dose 5.0 µM
NCI-H460 [12] = assay: Inhibition of DMBA-induced CYP1B1 overexpression in human NCI-H460 cells assessed as increase in Vimentin level incubated for 24 hrs by densitometry analysis; type: functional, cell-based; conditions: dose 5.0 µM
A549 [13] = assay: Inhibition of DMBA-induced CYP1B1 overexpression in human A549 cells assessed as increase in snail level incubated for 24 hrs by densitometry analysis; type: functional, cell-based; conditions: dose 5.0 µM
A549/TR [14] = assay: Synergistic antiproliferative activity against human A549/Taxol cells assessed as increase in taxol by measuring combination index at 15 uM incubated for 72 hrs in presence of 0.13 uM taxol by MTT assay; type: functional
A549/TR [15] = assay: Synergistic antiproliferative activity against human A549/Taxol cells assessed as increase in taxol by measuring combination index at 30 uM incubated for 72 hrs in presence of 0.13 uM taxol by MTT assay; type: functional
[16] = biological target: Mitogen-activated protein kinase; ERK1/ERK2 (Homo sapiens) (UniProt P27361+P28482); assay: Inhibition of ERK1/2 pathway in human A549/Taxol cells assessed as decrease in phosphorylated ERK1/2 level at 2.5 to 5 uM incubated for 24 hrs; type: cell-based; conditions: dose 2.5-5 µM
Chain of Mitogen-activated protein kinase; ERK1/ERK2 (Homo sapiens) (P27361 whole entry, looked up): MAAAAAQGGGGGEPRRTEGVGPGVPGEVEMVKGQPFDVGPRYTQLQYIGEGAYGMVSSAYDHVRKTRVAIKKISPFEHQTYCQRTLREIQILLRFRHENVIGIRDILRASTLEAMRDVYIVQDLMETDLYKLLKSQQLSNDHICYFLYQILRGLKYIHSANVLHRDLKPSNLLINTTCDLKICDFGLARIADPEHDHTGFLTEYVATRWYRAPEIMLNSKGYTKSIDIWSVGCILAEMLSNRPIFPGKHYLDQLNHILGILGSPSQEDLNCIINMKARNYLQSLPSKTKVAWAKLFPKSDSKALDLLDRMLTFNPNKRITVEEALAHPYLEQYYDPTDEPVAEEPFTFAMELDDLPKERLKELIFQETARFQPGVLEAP
Chain of Mitogen-activated protein kinase; ERK1/ERK2 (Homo sapiens) (P28482 whole entry, looked up): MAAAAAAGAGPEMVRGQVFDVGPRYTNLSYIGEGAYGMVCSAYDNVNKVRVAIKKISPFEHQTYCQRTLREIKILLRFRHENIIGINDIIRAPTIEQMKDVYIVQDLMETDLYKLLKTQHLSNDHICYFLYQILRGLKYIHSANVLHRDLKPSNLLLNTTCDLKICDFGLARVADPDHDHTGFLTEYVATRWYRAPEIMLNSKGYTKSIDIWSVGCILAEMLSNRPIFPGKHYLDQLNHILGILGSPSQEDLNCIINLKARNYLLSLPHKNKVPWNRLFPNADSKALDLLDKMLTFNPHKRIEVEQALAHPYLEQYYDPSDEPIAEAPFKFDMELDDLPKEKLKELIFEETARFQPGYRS

A549/TR [17] = assay: Synergistic antiproliferative activity against human A549/Taxol cells assessed as increase in taxol by measuring combination index at 15 uM incubated for 72 hrs in presence of 0.25 uM taxol by MTT assay; type: functional
Cytochrome P450 1A1 = biological target: T1, Cytochrome P450 1A1 (Homo sapiens, UniProt P04798); assay: Inhibition of recombinant human CYP1A1 using 7-ethyl-0-resorufin as substrate incubated for 30 mins in presence of NADPH by EROD assay
T1 sequence (P04798 whole entry): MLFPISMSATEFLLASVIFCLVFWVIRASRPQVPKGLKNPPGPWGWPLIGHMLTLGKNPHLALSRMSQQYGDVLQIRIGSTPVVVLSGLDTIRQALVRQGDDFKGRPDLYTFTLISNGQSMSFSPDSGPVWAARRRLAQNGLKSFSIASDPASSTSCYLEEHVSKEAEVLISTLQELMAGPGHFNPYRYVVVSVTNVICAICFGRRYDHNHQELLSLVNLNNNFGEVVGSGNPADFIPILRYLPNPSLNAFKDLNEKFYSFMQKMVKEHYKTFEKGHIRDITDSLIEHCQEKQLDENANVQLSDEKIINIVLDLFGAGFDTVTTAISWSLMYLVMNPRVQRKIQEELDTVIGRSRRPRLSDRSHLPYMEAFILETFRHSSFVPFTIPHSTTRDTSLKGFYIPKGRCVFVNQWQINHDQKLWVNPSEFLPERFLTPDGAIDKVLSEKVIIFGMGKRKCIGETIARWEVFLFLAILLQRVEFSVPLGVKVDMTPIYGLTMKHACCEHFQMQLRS

A549/TR [18] = assay: Synergistic antiproliferative activity against human A549/Taxol cells assessed as increase in taxol by measuring combination index at 3.75 uM incubated for 72 hrs in presence of 1 uM taxol by MTT assay; type: functional
A549/TR [19] = assay: Synergistic antiproliferative activity against human A549/Taxol cells assessed as increase in taxol by measuring combination index at 7.50 uM incubated for 72 hrs in presence of 0.25 uM taxol by MTT assay; type: functional; conditions: dose 7.5 µM
A549/TR [20] = assay: Synergistic antiproliferative activity against human A549/Taxol cells assessed as increase in taxol by measuring combination index at 3.75 uM incubated for 72 hrs in presence of 0.06 uM taxol by MTT assay; type: functional
A549/TR [21] = assay: Downregulation of Vimentin expression level in human A549/Taxol cells at 2.5 to 10 uM incubated for 24 hrs by densitometry analysis; type: functional, cell-based; conditions: dose 2.5-10 µM
A549/TR [22] = assay: Upregulation of E-cadherin expression level in human A549/Taxol cells at 2.5 to 10 uM incubated for 24 hrs by densitometry analysis; type: functional, cell-based; conditions: dose 2.5-10 µM

- inhibition [6]: Active
SMILES: COc1cc(/C=C/c2ccc(OC)cc2OC)cc(OC)c1
- inhibition (A549 [1]): inactive
- inhibition (A549 [2]): Active
- Activity (NCI-H460 [3]): Dose-Dependent Effect
- Activity (A549/TR [4]): Active
- Activity (A549 [5]): Dose-Dependent Effect
- inhibition (NCI-H460 [7]): Active
- inhibition (A549 [8]): Dose-Dependent Effect
- inhibition (NCI-H460 [9]): inactive
- Activity (NCI-H460 [10]): Dose-Dependent Effect
- inhibition (A549 [11]): Dose-Dependent Effect
- inhibition (NCI-H460 [12]): Dose-Dependent Effect
- inhibition (A549 [13]): Dose-Dependent Effect

- inhibition [16]: Active
- IC50 (Cytochrome P450 1A1): 347 nM
SMILES: COc1cc(Nc2nc(-c3nc(-c4ccccc4F)cs3)cs2)cc(OC)c1
- CI (A549/TR [14]): 0.22
- CI (A549/TR [15]): 0.11
- CI (A549/TR [17]): 0.3
- CI (A549/TR [18]): 1.89
- CI (A549/TR [19]): 0.47
- CI (A549/TR [20]): 0.64
- Activity (A549/TR [21]): inactive
- Activity (A549/TR [22]): Active
